Results on eight compounds are retold here after patent US20160082133A1, “CHEMICAL EXCHANGE SATURATION TRANSFER (CEST) BASED MRI USING REPORTER GENES AND SUBSTRATES AND METHODS THEREOF” (The Johns Hopkins University, priority 2013, published 2016).

The nature of series [1]: CEST MRI of CDase substrates and products at 9.4 T. It is filed as physicochemical. The conditions noted are these: pH 7.4, 37° C. The text has this:
All MR images were acquired with a 9.4T Bruker Avance system equipped with a 15 mm sawtooth RF coil. A modified RARE sequence (TR=6.0 sec, effective TE=43.2 ms, RARE factor=16, slice thickness=0.7 mm, FOV=14×14 mm, matrix size=128×64, resolution=0.11×0.22 mm^2, and NA=2) including a magnetization transfer (MT) module (one CW pulse, B=[…] (150 Hz), 3 sec) was used to acquire CEST-weighted images from −6 ppm to 6 ppm (step=0.2 ppm) around the water resonance (0 ppm). The absolute water resonant frequency shift was measured using a Water Saturation Shift Reference (WASSR) (Kim, M. et al. Magnetic Resonance in Medicine 2009, 61, 1441) method modified (Liu, G. et al. Contrast Media Mol Imaging 2010, 5, 162) with Lorentzian analysis. […]
Data processing was performed using custom-written scripts in MATLAB (Mathworks, Waltham, Mass.). CEST spectra were calculated from the mean of an ROI placed over each sample after B0 correction of the contrast on a per voxel basis. The CEST signal was quantified using MTRasym at specific offsets of interest (i.e., &ω=+2 ppm for cytosine or +2.4 ppm for 5FC) using the definition: MTRasym=(S^−˜ω−S^+″ω)/S0, where and s[−˜ω, +Aω] is the water signal intensity in the presence of a saturation pulse at offsets ±Aω, and S0 is water signal intensity in the absence of a saturation pulse.

The nature of series [2]: In vitro CEST-MRI of thymidine analogues at 11.7 T. In kind it is physicochemical. The conditions noted are these: pH 7.4, 37° C.; for MTRasym (8.5 Hz) / MTRasym (170 Hz) / MTRasym (213 Hz): at 5 ppm for 20 nM agent (so in the source); for MTRasym (128 Hz): at 5 ppm for 20 mM agent. On the procedure:
All compounds were dissolved at a concentration of 20 mM in phosphate-buffered saline (PBS) (pH=7.4) and placed in microcapillaries, as described previously.^17 CESTMRI experiments were performed on a vertical 11.7 T scanner (Bruker Avance system) at 37° C. A modified RARE sequence (TR/TE=10 000/9.4 ms; RARE factor=16; 1 mm slice thickness; FOV=11×11 mm^2; matrix size=64×32; resolution=0.17×0.34 mm^2; and NA=2) including a magnetization transfer (MT) module ([…]) was used to acquire CEST-weighted images from −8 to +8 ppm with increments of 0.2 ppm around the water resonance, which was assigned to be at 0 ppm. Pixel-based B0 correction was used as described before using the same parameters as above except for TR=1500 ms and B1/tsat=21 Hz/500 ms, with a sweep range from −2 to +2 ppm (0.1 ppm steps). Data processing was performed using custom-written scripts in MATLAB (Mathworks). Mean CEST spectra were plotted from an ROI for each sample, after B0 correction. MTRasym=100×(S^−Aω−S^AωA/^‘−’0)/3 was computed at different offsets Aω.

A short description of series [3]: Quantification of exchange rates (QUESP, Bloch equation fitting). In kind it is physicochemical. As to conditions: 11.7 T, pH 7.4, 37° C.; for kex, quantified exchange rates of imino and water protons: 5 ppm for 1-3, 6 ppm for dT. As to the method: Exchange rates were quantified with the saturation power dependent CEST approach (QUESP) and Bloch equation fitting (McMahon et al., Magn. Res. Med. 2006, 55, 836). For each sample, the MTRasym was measured at the imino resonance frequency for CEST saturation fields of 43, 85, 128, 170, 213, 255, 340, and 426 Hz while the saturation pulse duration was kept constant at 4000 ms. The Bloch equations were then fit numerically to these MTRasym values using MATLAB (Mathworks), and the exchange rates (kex, s^−1) were determined from the fits. Errors (95% confidence limits) were estimated using the F statistic.

The subject of another series is 293^HSV1-tk cells. As to the kind of experiment: Cell viability assay (CellTiter-Blue). In kind it is cell-based, human. The conditions noted are these: 0.5 mg/ml. On the procedure: Cell viability assay was performed using CellTiter-Blue® Cell Viability Assay (Promega), which provides a fluorometric method for estimating the number of viable cells present in 96 well plate. HEK293FT cells transduced with the HSV1-tk (293^HSV1-tk) were plated in 96 well-plate (10,000 cells/well). Cells were incubated for a periods of 4 hours and 24 hours in the presence of ganciclovir (GCV, 0.5 mg/ml in cell medium), compound 2 (0.5 mg/ml in cell medium) and medium (as control). CellTiter-Blue® Reagent was added (20 μl/well) and plate was incubated for 3 hours at 37° C. Finally, fluorescence 560/590 nm was recorded and values obtained from probe containing wells (GCV or 2, N=4) were normalized to values of non-treated cells (control wells) to determine the % of viable cells after the incubation period.

The target in the next series is T1, PKA (Mus musculus, UniProt P05132).
T1 construct: purchased New England Biolabs
As to the kind of experiment: Phosphorylation assay with recombinant PKA read out by CEST MRI. It is filed as biochemical. The conditions noted are these: 1 mM peptide. On the procedure:
(§1) CEST MRI experiments were performed on a vertical 11.7T Bruker Avance system. Approximately […] of each sample was loaded into a capillary tube and up to 20 samples were scanned at each session to minimize variability as described before (Liu G et al., High-throughput screening of chemical exchange saturation transfer MR contrast agents. Contrast Media Mol Imaging 2010; 5:162-17). […] To account for inhomogeneity of the B0 field, the absolute water resonant frequency shift was measured using a modified water saturation shift reference method (Kim M et al., Water saturation shift referencing (WASSR) for chemical exchange saturation transfer (CEST) experiments. Magn Reson Med 2009; 61:1441-1450), using the same parameters as in CEST imaging except pulse repetition time 1/4 1.5 s, saturation pulse 1/4 500 ms, B1 1/4 […], and a sweep range from −2 to +2 ppm (step 1/4 0.1 ppm). […] After B0 correction for each voxel using the water saturation shift reference data, mean CEST-spectra were calculated from a region of interest (ROI) for each sample. The MTR asymmetry was quantified as MTRasym 1/4 (S^−Δω−S^+Δω)/S^0 (S^−Δω and S^+Δω are the water peak differentials due to saturation at the target frequency +ω and its negative −ω, respectively. S^0 is the unsaturated signal). […]

Series [4] in a line: CEST-MRI of LRRASLG and LRRApSLG peptides in PBS. In kind it is physicochemical. As to conditions: 1 mM, PBS pH 7.4, 11.7T. On the procedure: Peptides were synthesized by NeoBioSci (Cambridge, Mass.) and provided as lyophilized powder. All compounds were dissolved in 10 mM PBS (pH 1/4 7.4) at the indicated concentration.
as §1, with “sample.” for “sample. The MTR asymmetry was quantified as MTRasym 1/4 (S^−Δω−S^+Δω)/S^0 (S^−Δω and S^+Δω are the water peak differentials due to saturation at the target frequency +ω and its negative −ω, respectively. S^0 is the unsaturated signal).”

For another series, the system named is HEK293. As to the kind of experiment: CEST MRI of HEK293 cells expressing hPRM1 (lysate and encapsulated live cells). In kind it is cell-based, Human. As to the method: CEST experiments were performed on an 11.7T Bruker Avance system, as previously described. A modified RARE (TR/TE=6000/9.4 ms), including a magnetization transfer module (B1=4.7 μT/4000 ms), was used to acquire CEST-weighted images. The absolute water resonant frequency shift was measured using a modified WASSR method, with the same parameters as in CEST imaging, except for TR=1.5 sec and a saturation pulse of B1=0.5 μT/250 ms, which was used for B0 correction for each voxel using MatLab. MTR asymmetry (MTRasym)=100×(S−Δω−S+Δω)/S0 was computed at different offsets, Δω. Human Embryonic Kidney cells (HEK293), were engineered to express the gene encoding to hPRM1 (NM_002761; 293^hPRM1). Non-expressing wild type cells (293^wt) were used as controls. The cells were lysed or encapsulated in alginate-based microcapsules using Ba^2+ ions as the gelating cation (Barnett, B. P., et al. Nat Protoc 6, 1142-1151 (2011)).

Values joined by “and” are separate entries in the source; they are usually repeats but may differ in a detail not shown here. Identical values can stand only once.

For the compound `O=c1[nH]cc(F)c(=O)[nH]1` [5FU, 5-fluorouracil], in series [1], the “MTRasym (CEST contrast)” value was “only limited and non-frequency-specific MTRasym”.

Consider `CC1(O)C(=O)NC(=O)N([C@H]2C[C@H](O)[C@@H](CO)O2)C1O` (stereo partly shown) [Compound 3, thymidine glycol], for which, in series [2], the “MTRasym (8.5 Hz)” value was determined as 3%, the “MTRasym (170 Hz)” value came to 11%, the “MTRasym (213 Hz)” value stood at 16% and the “MTRasym (128 Hz)” value came to 7%. For the same compound, in series [3], the “kex of the imino proton” value was 3.7±0.2×10^3 s^−1 and 5.1±0.7×10^3 s^−1; the “kex, quantified exchange rates of imino and water protons” value is 3.8 ± 0.2 ×10^3 s^−1.

Take `O=c1[nH]c(=O)n([C@H]2C[C@H](O)[C@@H](CO)O2)cc1Cl` [Compound 4, 5-chloro-2′-deoxyuridine]: the “CEST contrast from the imino proton” value in series [2] is “No CEST contrast was observed”.

With `Nc1nc(O)c2ncn(COC(CO)CO)c2n1` [GCV, ganciclovir, reference compound], in the series on 293^HSV1-tk cells (4 and 24 hours), the “toxic effect on 293^HSV1-tk cells” value is on record as “cytotoxic effect”. For the same compound, the cells killed entry in the series on 293^HSV1-tk cells (24 hour, 293^HSV1-tk) is “about 50%”.

`Cc1cn([C@H]2C[C@H](O)[C@@H](CO)O2)c(=O)[nH]c1=O` [dT, Thymidine, reference compound]: in series [2], the “MTRasym (8.5 Hz)” value is listed as 2%, the “MTRasym (170 Hz)” value came to 10%, the “MTRasym (213 Hz)” value is on record as 15% and the “MTRasym (128 Hz)” value is recorded as 5%. Moreover, in series [3], the “kex of the imino proton” value is given as 3.7±0.2×10^3 s^−1; the “kex, quantified exchange rates of imino and water protons” value is 5.1 ± 0.7 ×10^3 s^−1.

For `O=c1cc[nH]c(=O)[nH]1` [uracil], the “MTRasym (CEST contrast)” value in series [1] was “only limited and non-frequency-specific MTRasym”.

With LRRASLG, the “decrease in CEST contrast on incubation with recombinant PKA” value with PKA (4 mM ATP, 30° C.) was > 50%. Also, the “time in which the majority of the signal difference is generated” value with PKA (recombinant PKA) was ≤ 15 min. Moreover, the “CEST contrast of unphosphorylated versus phosphorylated peptide” value in series [4] was “significantly higher contrast”.

With “hPRM1: arginine-rich protein human protamine-1 (NM_002761) expressed as CEST reporter (ARYRCCRSQSRSRYYRQRQRSRRRRRRSCQTRRRAMRCCRPRYRPRCRRH; UniProt P04553 2-51, looked up)”, the “CEST contrast of encapsulated live cells compared to non-expressing wild type cells” value in the series with HEK293 (alginate microcapsules, 1.3 ppm and 3.6 ppm offsets) is “higher”. The “CEST contrast of 293^hPRM1 lysate compared to wild type lysate” value in the series with HEK293 (cell lysate) is “significantly higher CEST contrast”.
